Reference: paper PMC12364115, “High-throughput virtual screening, identification and in vitro biological evaluation of novel inhibitors of PLK1 and NRP1” (Journal of Enzyme Inhibition and Medicinal Chemistry, 2025)

Columns and labels:
[1] = target: T1, PLK1 (Homo sapiens, UniProt P53350); assay: PLK1 inhibition assay; type: biochemical
T1 construct: purchased Abcam (Cambridge, MA, USA)
Method: The method was as previously described. Briefly, the enzyme reaction mixture containing different doses of compounds was incubated for 90 min at room temperature. Then the mixture was transferred to a Neutravidin-coated 384-well plate and incubated for 60 min at room temperature. Then the wells were incubated with 50 μL of the antibody mixture for 1 h. The bound europium was liberated using 50 μL of Enhancement Solution.

[2] = target: T2, NRP1 (Homo sapiens, UniProt O14786); assay: NRP1 inhibition assay (125I-VEGF-A165 binding, HUVEC cells transfected with NRP1)
T2 construct: expressed in transfected cells; host or cells: HUVEC
Method: The method was as previously described. Briefly, HUVEC cells transfected with NRP1 were added to a 96-well plate and after growing to confluence, and the compounds were added to each well at different concentrations. Then, the ^125I-VEGF-A165 (0.1 nM) was added to measure non-specific binding. Data curves were plotted and half maximal inhibitory concentrations (IC50) were derived for the selected compounds using Prism 6.0 software.

[3] = target: T3, PLK2 (Homo sapiens, UniProt Q9NYY3); assay: In vitro selectivity assay PLK2; type: biochemical
T3 construct: ICE Bioscience Inc (Beijing, China) (performed the assay)
Method: (§1) To assess the selectivity of PLN-5, we systematically determined its inhibitory activity against PLK2, PLK3, PLK4 (homologues of PLK1) and […]. This assay was performed by ICE Bioscience Inc (Beijing, China).

[4] = target: T4, PLK3 (Homo sapiens, UniProt Q9H4B4); assay: In vitro selectivity assay PLK3; type: biochemical; settings: n = 3
T4 construct: ICE Bioscience Inc (Beijing, China) (performed the assay)
Method: as §1

[5] = target: T5, PLK4 (Homo sapiens, UniProt O00444); assay: In vitro selectivity assay PLK4; type: biochemical
T5 construct: ICE Bioscience Inc (Beijing, China) (performed the assay)
T5 sequence (O00444 1-970): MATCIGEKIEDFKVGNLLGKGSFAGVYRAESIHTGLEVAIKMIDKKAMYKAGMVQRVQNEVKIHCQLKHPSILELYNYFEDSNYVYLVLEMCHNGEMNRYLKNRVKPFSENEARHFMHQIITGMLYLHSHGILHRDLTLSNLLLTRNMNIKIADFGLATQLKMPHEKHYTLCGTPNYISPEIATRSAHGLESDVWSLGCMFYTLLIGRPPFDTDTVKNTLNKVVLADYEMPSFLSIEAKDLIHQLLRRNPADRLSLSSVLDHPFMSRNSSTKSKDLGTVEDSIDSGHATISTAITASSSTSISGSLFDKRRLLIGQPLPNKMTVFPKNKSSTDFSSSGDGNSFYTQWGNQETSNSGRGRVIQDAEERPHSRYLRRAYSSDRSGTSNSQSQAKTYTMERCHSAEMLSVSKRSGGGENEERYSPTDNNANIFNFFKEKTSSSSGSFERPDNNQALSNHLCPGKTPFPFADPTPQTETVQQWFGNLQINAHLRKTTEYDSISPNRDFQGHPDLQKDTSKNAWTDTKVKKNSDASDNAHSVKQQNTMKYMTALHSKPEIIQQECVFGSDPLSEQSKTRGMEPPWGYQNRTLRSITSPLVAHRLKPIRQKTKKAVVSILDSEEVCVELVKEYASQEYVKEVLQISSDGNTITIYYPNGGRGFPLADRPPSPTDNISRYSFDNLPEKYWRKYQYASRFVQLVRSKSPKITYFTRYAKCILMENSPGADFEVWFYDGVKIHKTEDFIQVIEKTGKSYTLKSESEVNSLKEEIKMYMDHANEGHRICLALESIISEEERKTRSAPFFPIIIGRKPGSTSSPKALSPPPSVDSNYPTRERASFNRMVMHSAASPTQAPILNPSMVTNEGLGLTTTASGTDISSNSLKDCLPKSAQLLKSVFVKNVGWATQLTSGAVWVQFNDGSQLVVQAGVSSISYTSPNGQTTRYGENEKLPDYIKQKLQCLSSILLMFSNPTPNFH
Method: as §1

[6] = target: T6, NRP2 (Homo sapiens, UniProt O60462); assay: In vitro selectivity assay NRP2; type: biochemical; settings: n = 3
T6 construct: ICE Bioscience Inc (Beijing, China) (performed the assay)
T6 sequence (O60462 21-931): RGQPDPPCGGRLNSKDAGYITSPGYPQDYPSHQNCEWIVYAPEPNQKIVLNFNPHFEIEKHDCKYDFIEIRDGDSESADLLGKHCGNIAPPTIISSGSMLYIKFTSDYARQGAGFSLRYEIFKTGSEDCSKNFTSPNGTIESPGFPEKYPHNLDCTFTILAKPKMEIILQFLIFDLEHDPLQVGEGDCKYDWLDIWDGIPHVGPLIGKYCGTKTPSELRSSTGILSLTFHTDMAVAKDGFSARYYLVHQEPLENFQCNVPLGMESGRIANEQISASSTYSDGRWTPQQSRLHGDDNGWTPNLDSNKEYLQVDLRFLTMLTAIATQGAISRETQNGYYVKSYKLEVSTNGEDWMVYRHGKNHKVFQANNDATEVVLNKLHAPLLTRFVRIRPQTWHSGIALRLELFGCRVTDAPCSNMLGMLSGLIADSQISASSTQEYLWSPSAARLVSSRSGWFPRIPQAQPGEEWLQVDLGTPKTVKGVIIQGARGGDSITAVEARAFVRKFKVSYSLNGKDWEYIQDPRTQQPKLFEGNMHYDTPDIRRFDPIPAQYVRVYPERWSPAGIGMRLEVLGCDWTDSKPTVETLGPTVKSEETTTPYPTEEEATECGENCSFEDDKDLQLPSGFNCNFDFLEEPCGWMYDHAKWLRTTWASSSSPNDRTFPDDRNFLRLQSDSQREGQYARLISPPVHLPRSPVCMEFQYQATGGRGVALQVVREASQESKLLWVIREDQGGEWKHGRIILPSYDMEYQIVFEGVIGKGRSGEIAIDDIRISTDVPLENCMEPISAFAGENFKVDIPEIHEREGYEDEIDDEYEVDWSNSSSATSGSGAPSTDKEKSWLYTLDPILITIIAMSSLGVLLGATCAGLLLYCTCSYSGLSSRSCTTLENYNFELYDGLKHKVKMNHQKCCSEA
Method: as §1

[7] = tested on: NCI-H460 cells; assay: MTT assay NCI-H460; type: cell-based, human
Method: (§2) The lung cancer cells NCI-H460 (large cell lung carcinoma), A549 (adenocarcinoma), A427 (adenocarcinoma) and normal lung cells BEAS-2B (human normal lung epithelial cells) were purchased from The American Type Culture Collection (ATCC) (Manassas, VA, USA). The cells were cultured with Roswell Park Memorial Institute (RPMI) ‐1640 medium. The temperature of the cell culture was maintained at 37 °C. Hit compounds were obtained commercially from WuXi AppTec (PLN-1, Lot NO: P112561-P1; PLN-2, Lot NO: P112561-P2; PLN-3, Lot NO: P112561-P3; PLN-4, Lot NO: P112561-P4; PLN-5, Lot NO: P112561-P5) (Table S1). The purity of PLN 1-5 was more than 98% as determined by HPLC (Supplementary material). Human PLK1 and NRP1 proteins were purchased from Abcam (Cambridge, MA, USA).
(§3) Cells were seeded in 96-well plates (5 × 10^4 cells/well) and incubated overnight. Cells were incubated with different concentrations of PLN-5 at 37 °C for 72 h. After removal of the medium, MTT stock solution (5 mg/ml) was added and the incubation continued for 4 h. After centrifugation, the insoluble crystals were dissolved in dimethyl sulfoxide and gently shaken for 15 min. Finally, absorbance was measured at 570 nm using a microplate reader. The IC50 were calculated using Prism 6.0 software.

[8] = tested on: A549 cells; assay: MTT assay A549; type: cell-based; settings: Homo sapiens, 72 h treatment, mean ± SD, n = 3
Method: as §2, §3

[9] = tested on: A427 cells; assay: MTT assay A427; type: cell-based; settings: Homo sapiens, A-427, 72 h treatment, mean ± SD, n = 3
Method: as §2, §3

[10] = tested on: BEAS-2B cells; assay: MTT assay BEAS-2B; type: cell-based, human; settings: normal lung cells, 72 h treatment, n = 3
Method: as §2, §3

T1 sequence (P53350 whole entry): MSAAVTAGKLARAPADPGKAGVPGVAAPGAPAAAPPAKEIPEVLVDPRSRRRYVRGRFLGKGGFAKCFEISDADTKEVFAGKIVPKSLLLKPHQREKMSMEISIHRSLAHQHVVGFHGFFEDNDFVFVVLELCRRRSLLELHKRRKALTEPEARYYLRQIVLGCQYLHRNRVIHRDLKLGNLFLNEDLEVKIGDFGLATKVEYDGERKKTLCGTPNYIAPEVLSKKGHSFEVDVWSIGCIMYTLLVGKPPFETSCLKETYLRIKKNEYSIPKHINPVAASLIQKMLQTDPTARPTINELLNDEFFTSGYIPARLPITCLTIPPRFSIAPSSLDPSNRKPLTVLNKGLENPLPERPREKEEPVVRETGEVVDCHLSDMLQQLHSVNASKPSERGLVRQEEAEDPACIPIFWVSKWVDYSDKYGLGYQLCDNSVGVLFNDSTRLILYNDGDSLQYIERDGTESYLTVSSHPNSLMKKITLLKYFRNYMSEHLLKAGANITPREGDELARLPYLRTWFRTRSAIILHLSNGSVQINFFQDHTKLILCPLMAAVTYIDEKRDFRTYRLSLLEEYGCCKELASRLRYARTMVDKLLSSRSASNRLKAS
T2 sequence (O14786 22-923): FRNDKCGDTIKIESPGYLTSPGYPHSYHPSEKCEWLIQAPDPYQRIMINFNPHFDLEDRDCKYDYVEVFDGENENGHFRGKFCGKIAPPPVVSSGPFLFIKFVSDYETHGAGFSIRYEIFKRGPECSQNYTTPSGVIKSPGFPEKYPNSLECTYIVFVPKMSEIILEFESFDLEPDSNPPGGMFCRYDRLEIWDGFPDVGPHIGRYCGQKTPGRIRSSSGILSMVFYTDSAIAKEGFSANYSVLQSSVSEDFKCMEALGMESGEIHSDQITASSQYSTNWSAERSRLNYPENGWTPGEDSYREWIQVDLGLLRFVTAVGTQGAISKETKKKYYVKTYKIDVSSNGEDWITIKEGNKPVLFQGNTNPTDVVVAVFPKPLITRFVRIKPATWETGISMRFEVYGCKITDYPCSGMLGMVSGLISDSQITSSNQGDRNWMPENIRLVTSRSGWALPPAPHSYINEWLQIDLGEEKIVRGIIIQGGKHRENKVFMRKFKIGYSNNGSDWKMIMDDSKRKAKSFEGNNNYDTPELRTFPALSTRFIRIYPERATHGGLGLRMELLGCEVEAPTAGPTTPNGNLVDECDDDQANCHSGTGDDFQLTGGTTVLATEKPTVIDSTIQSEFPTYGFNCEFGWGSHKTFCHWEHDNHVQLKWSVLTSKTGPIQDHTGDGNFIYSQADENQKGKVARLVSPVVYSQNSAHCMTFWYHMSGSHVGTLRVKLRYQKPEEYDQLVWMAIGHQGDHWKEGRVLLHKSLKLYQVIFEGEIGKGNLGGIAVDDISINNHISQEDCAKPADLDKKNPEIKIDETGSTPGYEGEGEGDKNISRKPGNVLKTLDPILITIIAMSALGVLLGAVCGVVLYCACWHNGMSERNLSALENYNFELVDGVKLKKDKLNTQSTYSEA
T3 sequence (Q9NYY3 whole entry, species assumed): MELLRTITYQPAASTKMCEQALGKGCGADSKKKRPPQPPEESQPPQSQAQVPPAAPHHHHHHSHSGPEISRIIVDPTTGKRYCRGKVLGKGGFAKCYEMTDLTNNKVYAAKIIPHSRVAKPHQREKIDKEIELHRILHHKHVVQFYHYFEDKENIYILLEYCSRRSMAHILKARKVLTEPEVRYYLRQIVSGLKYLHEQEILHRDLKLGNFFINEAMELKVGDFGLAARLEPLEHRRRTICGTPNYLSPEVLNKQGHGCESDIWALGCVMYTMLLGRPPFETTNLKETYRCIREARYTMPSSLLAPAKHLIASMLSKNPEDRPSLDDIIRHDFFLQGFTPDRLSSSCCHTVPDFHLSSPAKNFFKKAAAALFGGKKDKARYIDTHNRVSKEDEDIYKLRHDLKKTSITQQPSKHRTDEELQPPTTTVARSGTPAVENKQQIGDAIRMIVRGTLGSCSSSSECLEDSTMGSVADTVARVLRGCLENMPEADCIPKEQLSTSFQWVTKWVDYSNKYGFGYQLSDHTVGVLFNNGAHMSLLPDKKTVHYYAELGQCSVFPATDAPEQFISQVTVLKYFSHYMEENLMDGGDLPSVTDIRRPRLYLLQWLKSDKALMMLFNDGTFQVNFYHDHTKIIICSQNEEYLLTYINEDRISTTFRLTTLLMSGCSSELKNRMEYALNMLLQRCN
T4 sequence (Q9H4B4 whole entry, species assumed): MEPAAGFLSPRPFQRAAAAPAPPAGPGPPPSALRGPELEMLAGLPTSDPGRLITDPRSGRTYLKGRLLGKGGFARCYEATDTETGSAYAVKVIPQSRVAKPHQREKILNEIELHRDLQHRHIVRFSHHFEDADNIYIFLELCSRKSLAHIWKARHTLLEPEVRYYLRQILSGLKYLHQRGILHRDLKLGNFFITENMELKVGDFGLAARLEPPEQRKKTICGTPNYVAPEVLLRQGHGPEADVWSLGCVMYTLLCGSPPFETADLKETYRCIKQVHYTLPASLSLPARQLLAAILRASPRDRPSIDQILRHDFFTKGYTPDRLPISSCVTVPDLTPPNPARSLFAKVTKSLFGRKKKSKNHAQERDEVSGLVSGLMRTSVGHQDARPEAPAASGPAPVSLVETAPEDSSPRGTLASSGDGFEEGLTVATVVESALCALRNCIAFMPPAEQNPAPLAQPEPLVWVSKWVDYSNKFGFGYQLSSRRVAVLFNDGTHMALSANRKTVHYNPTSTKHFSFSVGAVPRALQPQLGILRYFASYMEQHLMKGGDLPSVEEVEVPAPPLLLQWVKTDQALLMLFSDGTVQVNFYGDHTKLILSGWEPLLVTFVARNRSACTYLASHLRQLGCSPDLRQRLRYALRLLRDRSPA

## NC(N)=NCCC[C@H](NC(=O)c1sccc1NS(=O)(=O)c1cccc2nsnc12)C(=O)O [EG00229, reference compound]
[1]; mean ± SD, n = 3
  PLK1 (IC50, nM): no inhibition
[2]; mean ± SD, n = 3
  IC50: 0.64 ± 0.0208 µM

## CCc1ccc2c(c1)NC(=O)Cc1cnc(Nc3cc(CCCN(C)CC(=O)N[C@@H](CCCN=C(N)N)C(=O)O)cnc3C)nc1-2 [PLN-4]
[1]; mean ± SD, n = 3
  IC50: 0.00451 ± 0.00026 µM
[2]; mean ± SD, n = 3
  IC50: 0.00783 ± 0.00042 µM

## Cc1ncc(CCCN(C)CC(=O)N[C@@H](CCCN=C(N)N)C(=O)O)cc1Nc1ncc2c(n1)-c1ccc(Cl)cc1NC(=S)C2 [PLN-5]
[1]; mean ± SD, n = 3
  IC50: 0.00207 ± 0.00013 µM
[1]; ratio of IC50 values vs positive control onvansertib
  PLK1 potency relative to onvansertib: approximately 9 fold
[2]; mean ± SD, n = 3
  IC50: 0.00515 ± 0.00024 µM
[2]; ratio of IC50 values vs positive control EG00229
  NRP1 potency relative to EG00229: ~124 fold
[3]
  IC50: > 10 µM
[4]
  IC50: > 10 µM
[5]
  IC50: > 10 µM
[6]
  IC50: > 10 µM
[7]; 2 μM compound
  cell survival rate of NCI-H460 cells: lowest survival rate
[7]; Homo sapiens, NCI-H460, 72 h treatment, MTT, mean ± SD, n = 3
  IC50: 0.27 ± 0.02 µM
[7]; MTT assay
  inhibition rate against NCI-H460 cells: more than 90%
[8]
  IC50: 0.41 ± 0.03 µM
[9]
  IC50: 0.33 ± 0.02 µM
[10]; Homo sapiens, BEAS-2B
  IC50: > 10 µM
[10]
  IC50 (μM) BEAS-2B: no significant inhibitory effect

## COc1ncc(Nc2ncc3c(n2)-c2ccc(Cl)cc2NC(=O)C3)cc1CCCCCC(=O)N[C@@H](CCCN=C(N)N)C(=O)O [PLN-3]
[1]; mean ± SD, n = 3
  IC50: 0.0114 ± 0.00074 µM
[2]; mean ± SD, n = 3
  IC50: 0.0305 ± 0.00255 µM

## Cc1ncc(CCCN(C)CC(=O)N[C@@H](CCCN=C(N)N)C(=O)O)cc1Nc1ncc2c(n1)-c1ccc(C#N)cc1NC(=O)C2 [PLN-1]
[1]; mean ± SD, n = 3
  IC50: 0.00812 ± 0.00034 µM
[2]; mean ± SD, n = 3
  IC50: 0.0127 ± 0.00081 µM

## NC(N)=NCCC[C@H](NC(=O)CCCCCc1cncc(Nc2ncc3c(n2)-c2ccc(Cl)cc2NC(=O)C3)c1)C(=O)O [PLN-2]
[1]; mean ± SD, n = 3
  IC50: 0.0165 ± 0.00286 µM
[2]; mean ± SD, n = 3
  IC50: 0.0243 ± 0.00129 µM

## CN1CCN(c2ccc(OC(F)(F)F)c(Nc3ncc4c(n3)-c3c(c(C(N)=O)nn3CCO)CC4)c2)CC1 [Onvansertib, onvansertib, reference compound]
[2]; mean ± SD, n = 3
  NRP1 (IC50, nM): no inhibition
